In test [1] the test system is umbilical cord blood-derived CD34+ cells. The test can be described thus: in vitro megakaryocyte lineage differentiation of umbilical cord blood-derived CD34+ cells, flow cytometry. In kind it is cell-based, human. Particulars: 10 μM; cells collected at D14; FIG. 14. The method, then:
(1) CD34^+ cells in umbilical cord blood were obtained by Ficoll-Paque PLUS density gradient centrifugation and magnetic bead sorting using CD34 MicroBead Kit. As to the particular steps, please refer to (GE Healthcare Life Sciences, http://www.gelifesciences.com), (Miltenyi Biotec, http://www.miltenyibiotec.com.cn).
(2) Differentiation of umbilical cord blood-derived CD34^+ cells into megakaryocytes: umbilical cord blood-derived CD34^+ cells were counted, and seeded at 1*10^6 cells to 4 ml StemSpan™ SFEM 11+50 ng/ml SCF+50 ng/ml TPO+50 ng/ml IL-6+20 ng/ml IL-3 in a 12-well plate, with 1 ml medium for each well, and four wells in total, to which 10 μM R04929097, 10 μM L-685458, 10 μM DAPT, and the same volume of DMSO as control were added, respectively, and the time was recorded as Day 0. The liquid was changed every 3 days, and the culture condition was 37° C., 5% CO2. After incubation for 6 days, the cell density was high, and the cells in each well were divided into two wells of a 12-well plate, with 2 ml medium for each well. The inhibitors were added at the same concnetrations as described above. The cells were collected at D14, counted, and detected for cell surface markers (CD41, CD42, CD61) by flow cytometer.
As to the collection of umbilical cord blood-derived CD34^+ cells, in vitro megakaryocytic differentiation and detection, please refer to Example 4-1.
(In general: A flow cytometer gives signals particle by particle.)

In another test the test system is normal iPSC BC1. The test can be described thus: in vitro megakaryocyte lineage differentiation of iPSC BC1 (spin-EB), flow cytometry at Day 14. In kind it is cell-based, human. How it is done: BC1 cell line was cultured in E8 medium, under the culture condition of 37° C., 5% CO2, and was passaged at (1:5)-(1:10) every 3-4 days depending on the concentration of cells. The cells were incubated in 0.5 mM EDTA, at room temperature for 2 min, and then were re-suspended and split up and down with E8 medium, and transferred to a culture dish that had been coated with Vitronectin one hour before.
During differentiation, spin-embryoid body (spin-EB) method was used (Ng E S, Davis R, Stanley E G, Elefanty A G, A protocol describing the use of a recombinant protein-based, animal product-free medium (APEL) for human embryonic stem cell differentiation as spin embryoid bodies, Nat Protoc. 2008; 3(5): 768-76.). At Day 0 (D0) after differentiation, iPSCs reached a confluence of above 85% (confluence refers to the percentage of the surface of a culture dish that is covered by adherent cells). After digestion with Accutase at 37° C. for 3 min, the cells were neutralized and split in SFM medium (50% IMDM, 50% Ham's F12, and the added reagents and factors including: human albumin, monothioglycerol, Glutamax, Chemically Defined Lipid Concentrate, L-Ascorbic acid 2-phosphate sesquimagnesium salt hydrate, ITS-X), counted, and centrifuged. After the cells were re-suspended in SFM, cytokines, i.e. 10 μM ROCK inhibitor (Rho-associated protein kinase inhibitor), 10 ng/ml bFGF, and 10 ng/ml BMP4, were added. Cells were seeded to a round-bottom 96-well plate, at 3000 or 5000 cells/50 μl for each well (3000 or 5000 cells were seeded to each well, in a volume of 50 μl for each well). At Day 2, 50 μl SFM medium+10 ng/ml bFGF+10 ng/ml BMP4+100 ng/ml SCF+20 ng/ml VEGF was added to each well. At Day 5, Day 8, and Day 11, 50 μl SFM medium+10 ng/ml bFGF+10 ng/ml BMP4+50 ng/ml SCF+10 ng/ml VEGF was added to each well, wherein 100 μl old medium was pipetted off at Day 8, and 10 ng/ml thrombopoietin (TPO) was added to each well at Day 11.
At Day 14 (D14), single cells (suspending cells) surrounding embryoid bodies (EBs) were collected. The cells were used in the following flow cytometry.
The cell surface markers (CD34, CD45, CD41, CD42) of the collected cells were detected by flow cytometer. The assay was as followed.
The detection was carried out in four tubes: the first tube was a negative tube that was not labeled with any flow antibody; the second tube was labelled with two antibodies CD34-APC and CD45-PE; the third tube was labeled with CD34-APC and CD41-PE; and the fourth tube was labeled with CD41-PE and CD42-APC, wherein CD34^+CD45^+represented the population of hematopoietic stem/progenitor cells (HSPCs), CD34^+CD41^+ represented the population of megakaryocyte progenitor cells (MKPs), and CD41^+CD42^+ represented the population of mature megakaryocytes (MKs).
(1) The BC1 cell line used was the same as the one used in Example 1, and was divided into three groups, wherein two 96-well plates were used for each group, and the cells were seeded at 5000 cells/50 μl to each well. In vitro differentiation was carried out by reference to the steps in Example 1, wherein the step of adding a drug was carried out in accordance with the following steps in I-III groups:
I. At Day 0 after differentiation, 10 μM RO4929097 was added, and DMSO was added to the control well.
III. At Day 2 after differentiation, 10 μM RO4929097, 10 μM L-685458, and 10 μM DAPT were added, respectively; in addition, at Day 5 after differentiation, 10 μM RO4929097, 10 μM L-685458, and 10 μM DAPT were added, respectively.
(2) The cells were collected for flow cytometry analysis, and as to the steps, please refer to the Example 1 above. […]
I. At Day 0 after differentiation, 10 μM RO4929097, and 10 μM DAPT were added, respectively.
II. At Day 2 after differentiation, 10 μM RO4929097, and 10 μM DAPT were added, respectively.
III. At Day 5 after differentiation, 10 μM RO4929097, and 10 μM DAPT were added, respectively.
IV. […]

The structures appear in SMILES notation.

On to `CC(C)C[C@H](NC(=O)[C@H](Cc1ccccc1)C[C@@H](O)[C@H](Cc1ccccc1)NC(=O)OC(C)(C)C)C(=O)N[C@@H](Cc1ccccc1)C(N)=O` [L-685458], for which, in test [1], the “proportion of mature megakaryocyte (CD61+), increase vs control group” value is given as 2.4 folds and the “proportion of mature megakaryocytes MK (CD41+CD42+) produced, increase vs control group” value stood at 2.3 folds. In the test on normal iPSC BC1 (5 μM added at Day 2, FIG. 6), the “increase of proportion of mature megakaryocytes produced vs DMSO control” value was determined as 21%. In addition, in the test on normal iPSC BC1 (10 μM added at Day 2, FIG. 7A), the “decrease of proportion of HSPCs (CD34+CD45+) vs DMSO control” value was 27%; the “proportion of MKPs (CD34+CD41+) produced, increased fold vs DMSO control (set as 1)” value is on record as “about 1.5 folds”; the “proportion of mature megakaryocytes MKs (CD41+CD42+) produced, increased fold vs DMSO control (set as 1)” value is “about 2.3 folds”. Also, in the test with normal iPSC BC1 (10 μM added at Day 5, FIG. 7B), the “proportion of HSPCs produced, increased fold vs DMSO control (set as 1)” value is on record as “about 1.5 folds”; the “proportion of MKPs produced, increased fold vs DMSO control (set as 1)” value was “about 1.2 folds”; the “proportion of mature megakaryocytes MKs produced, increased fold vs DMSO control (set as 1)” value is listed as “about 3.8 folds”; the “total number of hematopoietic cells, increase vs control group” value was found to be 2.3 folds. Also, the “production of megakaryocyte progenitor cells and/or mature megakaryocytes in vitro” value in the test with normal iPSC BC1 (screen in the in vitro differentiation system of stem cells) was “significantly promote”.

For the origin of these results see patent US20200022998A1, “MEDICAL USE OF NOTCH4 OR INHIBITORS THEREOF” (BEIJING INSTITUTE OF GENOMICS, CHINESE ACADEMY OF SCIENCES, priority 2016, published 2020).
